Data set [1] concerns β-catenin binding to p300. Put plainly: Co-immunoprecipitation assay in SW480 cells, p300 IP. The class given is cell-based. Here is the method:
(§1) FIG. 4A and FIG. 4B, show, according to further non-limiting aspects of the present invention, a co-immunoprecipitation assay that was performed in SW480 cells as previously described (Emami K. et al. PNAS USA, 2004 Aug. 24; 101 (34): 12682-7) to further confirm that the positive control compound ICG-001 and [3+2]-117 selectively disrupt β-catenin binding to CBP (FIG. 4A), while enhancing the binding of β-catenin to p300 (FIG. 4B). Immunoprecipitation of β-catenin with CBP was inhibited by ICG-001 at 10 μM ([…]) and by [3+2]-117 at 500 nM. […] Quantification of the immunoblotting data based upon pixelation is shown below the immunoblots.

Another data set addresses T1, β-catenin binding to CBP (Homo sapiens, UniProt Q92793).
T1 construct: endogenous in cells; host or cells: SW480 colorectal cancer cells
Put plainly: Co-immunoprecipitation assay in SW480 cells, CBP IP. Type of data set: cell-based. The settings on record: 10 μM. The method, then: as §1

Data set [2] relates to patients with HCV cirrhosis. The conditions noted are these: intravenous, cited from earlier work.
The subject of data set [3] is memory CD4+ T-cells in SIVmac251-infected RMs. The conditions noted are these: ART-suppressed SIVmac251-infected RMs; cited from earlier work.
Data set [4] has as its system bleomycin induced model of IPF in mice. Description: Bleomycin induced mouse model of idiopathic pulmonary fibrosis. Type of data set: in vivo. The settings on record: for overall survival and Ashcroft scoring versus historical control data for pirfenidone and nintedanib: from day 7 after bleomycin for 2 weeks; for extracellular collagen deposition (Masson's trichrome blue staining) compared to bleomycin saline treated historical control / survival: all treatment groups; for survival: to day 21; for Ashcroft score / Left lung weight / Post-caval lobe weight / Body weight: n = 3, mean +/− SD; for Body weight: day of sacrifice. The text has this: Bleomycin induced model of IPF.
Results. […] FIGS. 8A-8E are as follows: historical bleomycin saline treated control (8A, “ID:103”); [3+2]-120A low dose (8B, “ID:102”); [3+2]-120A high dose (8C, “ID:201”); [[3+2]-120B low dose (8D, ID:302”); and [3+2]-120B high dose (8E, ID:401”).

The test system of data set [5] is STAM mouse model of NASH-HCC. Description: STAM mouse model of NASH-HCC. The conditions noted are these: after 4 weeks of treatment, vehicle 5 out of 8. Type of data set: in vivo, mice. Here is the method:
In the vehicle control treated group only 5 out of 8 mice survived, whereas in the 3+2]-120A at 100 mg/kg/day (A-low) and 400 mg/kg/day (A-high), 7 out of 8 and 8 out of 8 mice survived respectively.

Data set [6] has as its system NC/Nga mice atopic dermatitis model. Put plainly: NC/Nga mouse model of atopic dermatitis. Type of data set: in vivo. The conditions noted are these: for dermatitis scores compared to vehicle control / TEWL (transepidermal water loss) compared to vehicle control: topical once daily Day 0-13; for TEWL (transepidermal water loss) compared to vehicle control: day 14; for mean body weight versus Vehicle group: any day during the treatment period. Here is the method: NC/Nga mice (female) were obtained from CHARLES RIVER LABORATORIES JAPAN INC. Mice were randomized into […] of 8 mice on Day 0 based on their body weight and dermatitis score. Eight NC/Nga mice were topically administered test compound-containing [3+2]-121A (compound 34) ointment (in a volume of 100 mg) once daily from Day 0 to Day 13, or vehicle control (hydrophilic petrolatum).
Representative test substance [3+2]-121A was formulated in hydrophilic petrolatum at low (100 uM) and high (500 uM) dosages (referred to in the study as [3+2]-121A and [3+2]-121B, respectively). 7-week-old female NC/Nga mice were used. The first induction of atopic dermatitis was performed three weeks before compound administration, for which the mice were shaved of hair on their backs and behind the ears with a clipper and a shaver. Then the mice had their hair removed completely with a depilatory agent (Epilat™, Kracie Home Products, Ltd.) before 100 mg of Biostir AD® ointment was applied to the shaved dorsal skin and both surfaces of each ear evenly with a plastic spoon. The second induction of atopic dermatitis was performed subsequently. The mice were shaved of hair on their backs and behind the ears, then 150 μl of 4% sodium lauryl sulfate solution was applied to the back and behind the ears with a plastic spoon. After this, it was dried with a hair dryer (cold air) and then left to dry naturally for about 1 to 2 hours. 100 mg of Biostir AD® ointment was applied to the shaved dorsal skin and both surfaces of each ear evenly with a plastic spoon. This procedure was repeated twice a week for three weeks. Twenty-four atopic dermatitis model mice were sorted into 3 groups of 8 mice based on their body weight and dermatitis severity score on the morning at Day 0. Vehicle control (hydrophilic petrolatum), [3+2]-121A or [3+2]-121B was administered topically in a volume of 100 mg once daily from Day 0 to Day 13. Body weight and food consumption were measured once a week at Day 0, 7 and 14. The severity of dermatitis was evaluated at Day 0, 3, 7, 10 and 14. The development of 1) erythema/hemorrhage, 2) scarring/dryness, 3) edema, 4) excoriation/erosion were scored as 0 (none), 1 (mild), 2 (moderate) and 3 (severe). The sum of the individual scores was taken as the dermatitis score. The TEWL was evaluated at Day 0 and at Day 14 after administration. Histological analyses were performed on lower neck dorsal skin and auricle that were fixed in 10% neutral formalin, embedded in paraffin and sectioned at 3-4 μm sections and stained with hematoxylin-eosin using Carrazzi's hematoxylin solution. For analysis of the skin area, bright field images of HE-stained sections were randomly captured using a digital camera (DS-Fi3; Nikon) at 2 and 4-fold magnification. Statistical analyses were performed using Prism Software 6 (GraphPad Software, USA). Statistical analyses were performed using Dunnett's Comparison Test. Comparisons were made between the following groups; Group 1 (Vehicle) vs. Group 2 ([3+2]-121A) and Group 3 ([3+2]-121B). P values <0.05 were considered statistically significant. Results were expressed as mean±SD.

Setting [7] is: both dosage groups (100 and 400 mg/kg/day p.o.).
Setting [8] is: high dosage group (400 mg/kg/day p.o.).

“Also recorded” adds a separate entry of the source.

T1 sequence (Q92793 whole entry): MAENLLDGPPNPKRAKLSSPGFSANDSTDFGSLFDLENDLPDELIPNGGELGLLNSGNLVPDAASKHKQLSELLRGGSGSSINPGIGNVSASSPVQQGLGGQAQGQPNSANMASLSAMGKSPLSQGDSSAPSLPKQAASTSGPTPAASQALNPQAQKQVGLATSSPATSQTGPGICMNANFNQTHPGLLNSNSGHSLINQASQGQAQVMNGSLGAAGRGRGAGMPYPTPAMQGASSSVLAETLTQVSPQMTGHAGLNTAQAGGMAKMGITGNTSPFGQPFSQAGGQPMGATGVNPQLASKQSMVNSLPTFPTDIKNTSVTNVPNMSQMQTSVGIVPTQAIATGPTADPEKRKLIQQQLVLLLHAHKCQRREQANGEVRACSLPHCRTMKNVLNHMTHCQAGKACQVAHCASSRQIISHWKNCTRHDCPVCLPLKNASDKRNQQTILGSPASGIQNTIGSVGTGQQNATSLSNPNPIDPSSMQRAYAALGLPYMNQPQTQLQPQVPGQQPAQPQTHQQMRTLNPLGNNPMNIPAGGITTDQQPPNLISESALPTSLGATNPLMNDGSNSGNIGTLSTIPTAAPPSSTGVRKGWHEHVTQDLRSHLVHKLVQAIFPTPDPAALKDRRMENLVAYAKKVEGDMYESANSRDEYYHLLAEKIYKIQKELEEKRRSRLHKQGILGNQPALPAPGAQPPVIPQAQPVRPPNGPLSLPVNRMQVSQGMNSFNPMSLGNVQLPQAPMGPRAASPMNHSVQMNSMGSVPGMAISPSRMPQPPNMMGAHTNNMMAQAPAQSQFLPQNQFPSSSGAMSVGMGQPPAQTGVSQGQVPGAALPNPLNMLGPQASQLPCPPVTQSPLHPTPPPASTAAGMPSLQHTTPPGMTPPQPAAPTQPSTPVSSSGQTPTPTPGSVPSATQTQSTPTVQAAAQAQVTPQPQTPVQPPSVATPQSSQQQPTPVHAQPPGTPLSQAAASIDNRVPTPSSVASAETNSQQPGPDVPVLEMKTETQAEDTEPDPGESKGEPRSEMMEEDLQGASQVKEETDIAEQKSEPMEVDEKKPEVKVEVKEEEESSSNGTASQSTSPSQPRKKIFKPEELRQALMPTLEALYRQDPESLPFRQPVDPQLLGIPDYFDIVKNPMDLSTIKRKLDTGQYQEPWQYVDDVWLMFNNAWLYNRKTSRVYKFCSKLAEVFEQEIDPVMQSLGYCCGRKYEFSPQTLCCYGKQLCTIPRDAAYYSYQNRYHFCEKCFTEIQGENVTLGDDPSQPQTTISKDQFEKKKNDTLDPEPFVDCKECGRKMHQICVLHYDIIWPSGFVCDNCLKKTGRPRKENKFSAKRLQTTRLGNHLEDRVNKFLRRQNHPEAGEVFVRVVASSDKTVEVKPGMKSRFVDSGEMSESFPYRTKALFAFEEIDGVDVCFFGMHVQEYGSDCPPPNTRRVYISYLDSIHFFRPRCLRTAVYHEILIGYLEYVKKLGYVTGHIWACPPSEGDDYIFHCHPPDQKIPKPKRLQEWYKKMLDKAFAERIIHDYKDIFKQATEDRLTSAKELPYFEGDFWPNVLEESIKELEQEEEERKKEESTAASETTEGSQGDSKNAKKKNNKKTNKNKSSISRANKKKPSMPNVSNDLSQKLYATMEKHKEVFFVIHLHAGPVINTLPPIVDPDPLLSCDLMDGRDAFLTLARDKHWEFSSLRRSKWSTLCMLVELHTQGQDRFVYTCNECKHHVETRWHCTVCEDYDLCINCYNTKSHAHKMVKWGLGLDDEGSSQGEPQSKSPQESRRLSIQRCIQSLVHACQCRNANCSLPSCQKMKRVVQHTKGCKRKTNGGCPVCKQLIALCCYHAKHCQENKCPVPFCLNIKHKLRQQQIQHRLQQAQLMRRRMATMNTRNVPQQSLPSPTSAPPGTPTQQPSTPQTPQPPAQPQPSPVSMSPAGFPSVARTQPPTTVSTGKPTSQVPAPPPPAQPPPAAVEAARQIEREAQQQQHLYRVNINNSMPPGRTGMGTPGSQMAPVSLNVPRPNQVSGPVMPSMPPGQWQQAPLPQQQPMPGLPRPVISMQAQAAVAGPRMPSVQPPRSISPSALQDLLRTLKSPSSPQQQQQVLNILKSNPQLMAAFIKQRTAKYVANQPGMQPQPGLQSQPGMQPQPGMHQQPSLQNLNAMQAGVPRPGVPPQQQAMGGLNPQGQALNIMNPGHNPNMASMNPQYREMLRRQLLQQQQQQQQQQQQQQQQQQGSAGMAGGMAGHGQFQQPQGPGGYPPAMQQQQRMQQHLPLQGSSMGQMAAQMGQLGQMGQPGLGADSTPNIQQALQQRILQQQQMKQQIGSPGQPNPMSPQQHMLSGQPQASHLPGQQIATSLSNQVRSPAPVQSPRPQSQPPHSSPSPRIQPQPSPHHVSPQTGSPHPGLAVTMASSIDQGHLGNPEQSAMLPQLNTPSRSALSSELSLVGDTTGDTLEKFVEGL

As for `O=C1[C@H](Cc2ccc(O)cc2)N2C(=O)CCN(C(=O)NCc3ccccc3)[C@H]2CN1Cc1cccc2ccccc12` [ICG-001], in data set [1], the “minimal interaction between β-catenin and p300” value is “not blocked”. Moreover, the “amount of β-catenin co-immunoprecipitated with p300” value in data set [1] (10 μM) is given as “slightly increases”. Besides, the “Immunoprecipitation of β-catenin with CBP” value at β-catenin binding to CBP is “inhibited”.

For the compound `C[C@H]1[C@H]2N(C(=O)CN(C)N2C(=O)NCc2ccccc2)[C@@H](Cc2ccc(OP(=O)(O)O)cc2)C(=O)N1Cc1cccc2cccnc12` [PRI-724], the safety result in data set [2] (10 and 40 mg/m^2/day for 12 weeks (1 week on and 1 week off)) is recorded as “safe”. Further, the “plasma exposure of the drug” value in data set [2] (10 and 40 mg/m^2/day for 12 weeks) is given as “dose-dependent”. For the same compound, in data set [2] (10 and 40 mg/m^2/day for 12 weeks, in several patients), the “liver histology and Child Pugh scores” value is reported as “improvement”. The “proliferation of T memory stem cells (SCM) and central memory T-cells (CM)” value in data set [3] is “decrease”.

In the case of `CS(=O)(=O)O.O=C1[C@H](Cc2ccc(O)cc2)N2C(=O)CN(Cc3cc(-c4ccccn4)no3)N(C(=O)NCc3ccccc3)[C@H]2CN1Cc1cccc2ncccc12` [[3+2]-120A], the “overall survival and Ashcroft scoring versus historical control data for pirfenidone and nintedanib” value in data set [4] (100 mg/kg/day p.o.) is reported as “compared favorably”. Besides, the “overall survival and Ashcroft scoring versus historical control data for pirfenidone and nintedanib” value in data set [4] (400 mg/kg/day p.o.) was “compared favorably”. In data set [4], the “extracellular collagen deposition (Masson's trichrome blue staining) compared to bleomycin saline treated historical control” value is on record as “significant reduction” and the survival result is given as “all mice survived”. In data set [4] (setting [7]), the Ashcroft scores entry is given as “significant decrease”, the lung weights entry is recorded as “significant decrease” and the weight gain entry is recorded as “significant increase”. For the same compound, in data set [4] (high dose (400 mg/kg/day p.o.)), the Ashcroft score is given as 2.5 +/− 2.0, the Left lung weight is 66 ± 33 mg, the Post-caval lobe weight was found to be 25 ± 18 mg and the Body weight stood at 16.9 ± 3.8 g. Also, in data set [4] (low dose p.o.), the Ashcroft score is on record as 2.2 +/− 1.7, the Left lung weight was found to be 65 ± 19 mg, the Post-caval lobe weight came to 21 ± 9 mg and the Body weight was 18.2 ± 0.7 g. Further, the mice survived in data set [5] (100 mg/kg/day p.o. (A-low)) is on record as 7 out of 8. Also, in data set [5] (400 mg/kg/day p.o. (A-high)), the mice survived is 8 out of 8.

Take `CCOC(=O)CNC(=O)CNC(=O)Oc1ccc(C[C@H]2C(=O)N(Cc3cccc4ncccc34)C[C@H]3N2C(=O)CN(Cc2cc(-c4ccccn4)no2)N3C(=O)NCc2ccccc2)cc1` [[3+2]-120B, ethyl 2-(2-((4-(((6S,9aS)-1-(benzylcarbamoyl)-4,7-dioxo-2-((3-(pyridin-2-yl)isoxazol-5-yl)methyl)-8-(quinolin-5-ylmethyl)octahydro-1H-pyrazino[2,1-c][1,2,4]triazin-6-yl)methyl)phenoxy)carbonylamino)acetamido)acetate]: the “overall survival and Ashcroft scoring versus historical control data for pirfenidone and nintedanib” value in data set [4] (400 mg/kg/day p.o.) is listed as “compared favorably”. In addition, in data set [4], the “extracellular collagen deposition (Masson's trichrome blue staining) compared to bleomycin saline treated historical control” value is listed as “significant reduction” and the survival entry is “all mice survived”. In addition, in data set [4] (setting [8]), the Ashcroft scores result was “significant decrease”, the lung weights entry was “significant decrease” and the weight gain result is listed as “significant increase”. In addition, in data set [4] (high dose (400 mg/kg/day p.o.)), the Ashcroft score is 2.1 +/− 0.7, the Left lung weight was determined as 65 ± 13 mg, the Post-caval lobe weight turned out to be 21 ± 6 mg and the Body weight amounted to 19.5 ± 1.6 g. Moreover, in data set [4] (low dose p.o.), the Ashcroft score was 3.9 +/− 1.4, the Left lung weight was found to be 77 ± 15 mg, the Post-caval lobe weight is 39 ± 17 mg and the Body weight was determined as 15.1 ± 3.8 g.

For the compound `CCCCCCCCCCCC(=O)Oc1ccc(C[C@H]2C(=O)N(Cc3cccc4ccccc34)C[C@H]3N2C(=O)CN(Cc2cc(-c4ccccc4)no2)N3C(=O)NCc2ccccc2)cc1` [[3+2]-121A], in data set [6] (high (500 uM) ointment), the “dermatitis scores compared to vehicle control” value is “significantly decreased” and the “TEWL (transepidermal water loss) compared to vehicle control” value was “significantly decreased”. In addition, in data set [6] (low (100 uM)), the “food consumption per mouse versus Vehicle group” value is given as “no significant differences”; the “inflammation and inflammatory cell influx (histological analysis)” value was “significant reduction”; the “mean body weight versus Vehicle group” value is “no significant differences”. In data set [6] (low (100 uM) ointment), the “dermatitis scores compared to vehicle control” value is “significantly decreased” and the “TEWL (transepidermal water loss) compared to vehicle control” value is on record as “significantly decreased; also recorded: significant decrease”. The “dermatitis severity score on the back compared with Vehicle group” value in data set [6] (low (100 uM), Days 10 and 14) is “significant decrease”. Further, the “total dermatitis severity score compared with Vehicle control group” value in data set [6] (low (100 uM), primarily on the back, Days 10 and 14) was “significant decrease”.

Regarding `CCCCCCCCCCCC(=O)Oc1ccc(C[C@H]2C(=O)N(Cc3cccc4ccccc34)C[C@H]3N2C(=O)CN(Cc2cc(-c4ccccc4)no2)N3C(=O)NCc2ccccc2)cc1` [[3+2]-121B], in data set [6] (high (500 uM)), the “food consumption per mouse versus Vehicle group” value is given as “no significant differences”; the “inflammation and inflammatory cell influx (histological analysis)” value was “significant reduction”; the “mean body weight versus Vehicle group” value is “no significant differences”. Further, in data set [6] (high (500 uM) ointment, listed as 121B), the “TEWL (transepidermal water loss) compared to vehicle control” value is listed as “significant decrease”.

These data come from US11655253B2, “CBP/catenin signaling pathway inhibitors and uses thereof” (3+2 Pharma, LLC, priority 2020, dated 2023).
